Where two headings read alike, the source gives them in different places. Values belong to the molecule of their own block, whether it stands above or below them.
Key:
smooth muscle cells = assay: Inhibition of the proliferation of smooth muscle cells (general statements); type: cell-based; details: qualitative statement
[1] = Solubility tests in water of SR 33805 salts; type: physicochemical; details: for solubility: (2) water of pH = 3.6
Procedure: (1) solubility in water at 25° C. after stirring for 72 hours
(2) solubility in water of pH = 3.6
(3) solubility after addition of the product to be tested to water at
70° C., stirring and continuation of stirring for 72 h at […]

[2] = system: human aortic smooth muscle cells; assay: in vitro inhibition of proliferation of human aortic smooth muscle cells; type: cell-based; details: read-out: IC50 (inhibition of cell proliferation)
Procedure: "in vitro" tests were carried out using human aortic smooth muscle cells at rest (10^3 cells per test).
These cells were incubated in the presence of minimum eagle medium to which 5% of an agent inducing a cell proliferation was added. These tests were performed with various increasing doses of the compound to be studied compared with controls.

[3] = system: Ca^++ surcharge in arterial regions (femoral, mesenteric, aortic etc.); assay: Inhibition of the Ca++ surcharge after treatment with vitamin D3 in rats; type: in vivo, rat; details: administered twice daily; for minimal effective dose: Rattus norvegicus, 72 h, oral, 3 days
Procedure: 1) Inhibition of the Ca^++ surcharge after treatment with vitamin D3 in rats
A test was performed on rats, to which 300,000 IU/kg of vitamin D3 were administered intramuscularly, followed by oral administration of a daily dose of the compound to be studied. The oral treatment using the compound to be tested was continued for 3 days, the animals were sacrificed and the Ca^++ was then assayed in various arterial regions (femoral, mesenteric, aortic etc.).

[4] = system: rabbit carotid arteries (myointimal proliferation); assay: Inhibition of myointimal proliferation induced in rabbit carotid arteries after lesion of the endothelium; type: in vivo; details: oral, 16 days
Procedure: 2) Inhibition of myointimal proliferation induced in rabbit carotid arteries after lesion of the endothelium For this purpose, rabbits from which the endothelium of the carotid artery was removed were used. Two hours before the lesion, the compound to be studied was administered orally. The treatment was continued orally, daily for 16 days, and the surface areas of the intima and of the media were then determined by morphometric measurement.

cardiovascular system = assay: Activity on the cardiovascular system
calcium translocation = assay: Inhibition of calcium translocation in vitro; type: biochemical
[5] = Hygroscopicity and storage stability of SR 33805 salts; type: physicochemical
[6] = (3) added to water at 70° C., then stirring 72 h at 25° C., read-out: solubility after addition of the product to be tested to water at 70° C., stirring and continuation of stirring for 72 h at 25° C.
[7] = water, (1) water, 25° C., stirring 72 hours, read-out: solubility in water at 25° C. after stirring for 72 hours
[8] = Homo sapiens, 72 h, inducing agent: foetal growth factor, 3 days incubation
[9] = Homo sapiens, Platelet, 72 h, inducing agent: platelet derived growth factor, 3 days incubation

Molecule: COc1ccc(CCN(C)CCCOc2ccc(S(=O)(=O)c3c(C(C)C)c4ccccc4n3C)cc2)cc1OC [SR 33805, 1-methyl-3-isopropyl-2-[4-{3-[N-methyl-N-(3,4-dimethoxyphenethyl)amino]propoxy}benzenesulphonyl]indole]
inhibition of the proliferation of smooth muscle cells (smooth muscle cells): most interesting inhibitory potentiality

solubility [1]: 100 µg/mL
solubility thermodynamic at 72 h [1, 6]: 260 µg/mL
solubility thermodynamic at 72 h [1, 7]: 150 µg/mL
Molecule: COc1ccc(CCN(C)CCCOc2ccc(S(=O)(=O)c3c(C(C)C)c4ccccc4n3C)cc2)cc1OC [SR 33805 B]

Molecule: 3-isopropyl-1-[4-{3-[N-methyl-N-(3,4-dimethoxyphenethyl)amino]propoxy}benzenesulphonyl]-indolizine [Fantofarone]
IC50 ([2]; inducing agent: fetal calf serum, 3 days incubation): 5.5 µM
IC50 ([2]; inducing agent: foetal growth factor, 3 days incubation): 2 µM
IC50 ([2]; inducing agent: platelet derived growth factor, 3 days incubation): > 10 µM
inhibition of the proliferation of smooth muscle cells (smooth muscle cells): devoid of such properties or have shown themselves to be endowed with these properties at high, or even subtoxic, doses
dose from which significant decrease in the total Ca content ([3]; artery not specified, same experimental conditions): 100 mg/kg
effect on myointimal hyperplasia ([4]; maximum dose 12 mg/kg): no significant effect

Molecule: COC(=O)C1=C(C)NC(C)=C(C(=O)OC)C1c1ccccc1[N+](=O)[O-] [Nifedipine]
IC50 [2, 8]: 1 µM
IC50 [2, 9]: > 10 µM
effect on myointimal hyperplasia ([4]; maximum dose 6 mg/kg or twice 6 mg/kg): no significant effect

Molecule: CNCCCOc1ccc(S(=O)(=O)c2c(C(C)C)c3ccccc3n2C)cc1 [SR 34549, 1-methyl-3-isopropyl-2-{4-[3-(N-methylamino)propoxy]benzenesulfonyl} indole]
inhibition of the proliferation of smooth muscle cells (smooth muscle cells): strong activity
activity on the cardiovascular system (cardiovascular system): very moderate or lack of activity
inhibition of the calcium translocation (calcium translocation): devoid of inhibitory properties

Molecule: COc1ccc(CCN(C)CCCC(C#N)(c2ccc(OC)c(OC)c2)C(C)C)cc1OC (stereo not drawn) [Verapamil]
IC50 ([2]; Homo sapiens, 72 h): 10 µM
inhibition of the proliferation of smooth muscle cells (smooth muscle cells): devoid of such properties or have shown themselves to be endowed with these properties at high, or even subtoxic, doses
effect on myointimal hyperplasia ([4]; maximum dose twice 6 mg/kg): no significant effect

hygroscopicity [5]: no signs of hygroscopicity
stability under various storage conditions ([5]; various storage conditions): good stability
solubility [1]: 79900 µg/mL
solubility thermodynamic at 72 h [1, 6]: 98300 µg/mL
aqueous solubility ([1]; in words, contrary to the other salts of SR 33805): good aqueous solubility
solubility thermodynamic at 72 h [1, 7]: 67500 µg/mL
Molecule: COc1ccc(CCN(C)CCCOc2ccc(S(=O)(=O)c3c(C(C)C)c4ccccc4n3C)cc2)cc1OC.CS(=O)(=O)O [SR 33805 C, 1-methyl-3-isopropyl-2-[4-{3-[N-methyl-N-(3,4-dimethoxyphenethyl)amino]propoxy}benzenesulphonyl]-indole methanesulphonate]
IC50 ([2]; Homo sapiens, 72 h, inducing agent: fetal calf serum, 3 days incubation): 0.9 µM
IC50 [2, 8]: 0.6 µM
IC50 [2, 9]: 0.3 µM
minimal effective dose ([3]; aorta, read-out: dose from which significant inhibition of the Ca++ surcharge in the aorta): 2 mg/kg
minimal effective dose ([3]; mesenteric artery, read-out: dose from which significant inhibition of the Ca++ surcharge in the mesenteric artery): 5 mg/kg
minimal effective dose ([4]; Oryctolagus cuniculus, 384 h, read-out: dose from which significant inhibition of myointimal proliferation): 1.5 mg/kg
inhibition of myointimal proliferation ([4]; from the dose of 1.5 mg/kg, significant): -58%

solubility [1]: 190 µg/mL
solubility thermodynamic at 72 h [1, 6]: 310 µg/mL
solubility thermodynamic at 72 h [1, 7]: 70 µg/mL
Molecule: COc1ccc(CCN(C)CCCOc2ccc(S(=O)(=O)c3c(C(C)C)c4ccccc4n3C)cc2)cc1OC.O=C(O)C(=O)O [SR 33805 A, 1-Methyl-3-isopropyl-2-[4-{3-[N-methyl-N-(3,4-dimethoxyphenethyl)amino]propoxy}benzenesulphonyl]indole hydrogen oxalate]

Molecule: COc1ccc([C@@H]2Sc3ccccc3N(CCN(C)C)C(=O)[C@@H]2OC(C)=O)cc1 [Diltiazem]
effect on myointimal hyperplasia ([4]; maximum dose twice 6 mg/kg): no significant effect
